Data from patent US8871751B2, “Compositions and methods relating to nuclear hormone and steroid hormone receptors including inhibitors of estrogen receptor alpha-mediated gene expression and inhibition of breast cancer” (The Board of Trustees of the University of Illinois, priority 2008, dated 2014).
Where two headings read alike, the source gives them in different places.

Experiments:
[1] = system: BG-1 ovarian cancer cells; experiment: BG-1 cell growth assay (MTS); format: cell-based; settings: for IC50: 10 pM E2, 5 days, MTS, read-out: IC50 for inhibition of E2-dependent growth of BG-1 cells
Protocol: ERα positive BG-1 ovarian cancer cells (44) were provided by Prof. K. Korach. ERα negative MDA-MB-231 human breast cancer cell lines were provided by Prof. A. Nardulli. The cells are maintained in phenol red-free MEM medium with 5% calf serum and antibiotics. 4 days before hormone induction, cells are switched to phenol red-free MEM medium containing 5% 2XCD-treated calf serum for BG-1 cells. For BG-1 cell growth assays, 250 cells in 100 μl of phenol-red-free medium were added to wells of a 96-well plate. After 24 h, the indicated concentrations of the test compounds and 10 pM E2 or ethanol vehicle were added to each well. Compounds in DMSO were diluted in medium so that the DMSO concentration was not greater than 0.5%. Cell viability assays were carried out 5-6 days later using Promega CellTiter 96®Aqueous One Solution Cell Proliferation Assay (Promega, Wis.).

GR = biological target: T1, GR (Rattus norvegicus, UniProt P06536); experiment: GR transactivation, MMTV-luciferase reporter in T47D cells; format: cell-based, human
T1 construct: expressed in transfected cells; host or cells: T47D/A1-2
T1 sequence (P06536 1-795): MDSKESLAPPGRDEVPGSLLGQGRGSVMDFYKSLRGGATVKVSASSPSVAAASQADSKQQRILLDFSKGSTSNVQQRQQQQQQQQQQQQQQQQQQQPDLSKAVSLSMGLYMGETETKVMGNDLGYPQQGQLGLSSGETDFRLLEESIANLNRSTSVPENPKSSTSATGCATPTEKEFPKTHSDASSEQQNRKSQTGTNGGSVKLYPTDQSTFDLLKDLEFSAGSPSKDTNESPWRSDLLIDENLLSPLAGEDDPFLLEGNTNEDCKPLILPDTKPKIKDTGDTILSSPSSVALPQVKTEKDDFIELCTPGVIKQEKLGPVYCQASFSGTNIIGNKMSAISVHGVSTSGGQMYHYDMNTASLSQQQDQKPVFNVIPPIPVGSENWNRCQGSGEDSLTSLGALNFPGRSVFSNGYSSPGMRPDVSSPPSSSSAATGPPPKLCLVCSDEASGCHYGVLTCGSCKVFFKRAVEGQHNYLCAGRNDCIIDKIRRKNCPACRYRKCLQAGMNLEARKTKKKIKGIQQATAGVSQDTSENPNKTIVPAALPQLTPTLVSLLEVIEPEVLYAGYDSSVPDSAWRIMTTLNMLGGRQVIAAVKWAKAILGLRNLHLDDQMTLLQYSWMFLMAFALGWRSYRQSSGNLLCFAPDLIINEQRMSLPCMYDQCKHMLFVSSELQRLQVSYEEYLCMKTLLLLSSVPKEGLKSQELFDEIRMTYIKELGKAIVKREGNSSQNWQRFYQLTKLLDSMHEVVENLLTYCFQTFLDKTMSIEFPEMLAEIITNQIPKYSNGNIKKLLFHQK
Protocol: The T47D-KBluc cells stably express an (ERE)3-luciferase reporter gene (38). Cells were maintained in phenol red-free RPMI 1640 with 2 mM L-glutamine, 1.5 g/l sodium bicarbonate, 4.5 g/l glucose, 10 mM Hepes, pH 7.5, 1 mM sodium pyruvate, 10% FBS (Atlanta Biological, Atlanta, Ga.) and antibiotics. Four days before E2 induction, the cells were switched to the above medium, with 10% 2× charcoal-dextran-treated calf serum instead of FBS. 200,000 cells/well were transferred to each well of a 24-well plate. After 24 h the indicated concentrations of the test compounds were added in DMSO and E2 was added to 20 pM. After 24 h cells were washed once in PBS, and 150 μl 1× Passive Lysis Buffer (Promega, Madison Wis.) was used to lyse the cells. Luciferase activity was determined using firefly luciferase reagents from Promega (Madison, Wis.). T47D cells stably transfected to express GR and a mouse mammary tumor virus luciferase reporter that responds to liganded GR and PR were maintained and assayed in medium containing 5 nM progesterone for PR assays, or 2.5 nM dexamethsaone for GR assays, essentially as described (39).
Reporter Gene Assays. TPSF was identified by reporter gene assays comparing the ability of ˜200 compounds structurally related to TPBM (see reference 19) to inhibit transcription of a stably transfected (ERE)3-luciferase reporter gene in T47D-KBluc breast cancer cells (20). AR was assayed in stably transfected HeLa cells and GR was assayed in stably transfected T47D cells maintained as described above. Four days before each experiment the cells were switched to medium containing CD-treated serum as described above. The HeLaAR cells were plated at 100,000 cells/well and the T47D/A1-2 and T47D-KBluc cells were plated at 200,000 cells/well in 1 ml of their respective media in 24-well plates. After 24 hours the indicated concentrations of E2, dihydrotestosterone (DHT) or dexamethasone (Dex) and DMSO vehicle, with or without TPSF, were added to each well. After 24 hours, the cells were washed once in phosphate buffered saline and lysed using 100 μl of 1× Passive Lysis Buffer (Promega, Madison Wis.). Luciferase activity was determined using BrightGlo firefly luciferase reagent from Promega (Madison, Wis.).

60 cancer cell lines = settings: independent testing at NCI Developmental Therapeutics Program, cited from earlier work
MCF-7 cells = experiment: E2-dependent growth of MCF-7 cells (MTS); format: cell-based, human
Protocol: Assays for Cell Growth and Viability. Cells were maintained in the media listed above containing CD-treated serum for at least 4 days prior to the experiment. To minimize cell aggregation, MCF-7 cells were harvested in 10 mM Hepes, pH 7.4, 1 mM EDTA. Other cell lines were harvested in trypsin-EDTA. 1,000 cells were plated into each well of a 96 well plate. For slow growing ZR-75 cells, 2,000 cells were plated/well. The cells were maintained in medium containing CD-treated serum for 24 hours. At 24 hours the medium was changed and E2 and DMSO vehicle or TPSF in DMSO was added. The medium was replaced after 2 days (except for BT474 cells whose medium was not changed). After 4 days viable cells were determined using a cell viability test, Promega CellTiter 96 Aqueous One Solution Cell Proliferation Assay (MTS) (Promega, Wis.).

Structure (SMILES): CN1CCC(C#N)c2ccccc21 (stereo not drawn) [Compound 1529]
- IC50 [1]: ~5 µM
- concentration inhibiting growth of BG-1 cells in the absence of E2 ([1]; no E2, 5 days): > 5 µM

Structure (SMILES): Cn1c(=O)c2nc(CSCc3ccccc3)[nH]c2n(C)c1=O [Compound 95910, 8-Benzylsulfanylmethyl-1,3-dimethyl-3,7-dihydro-purine-2,6-dione]
- inhibition at 30 µM (GR; T47D, 30 μM, 2.5 nM dexamethasone): ~35%
- effect on GR transactivation (GR; up to 20 μM, 2.5 nM dexamethasone): did not inhibit
- potency for inhibiting E2-ERα-dependent cell growth relative to nonspecific toxicity [1]: > 10 fold
- IC50 ([1]; Homo sapiens, BG-1, 120 h): 5 µM
- effect on E2-independent growth of BG-1 cells ([1]; no E2, 5 days): had no effect
- effect on breast and ovarian cell growth (60 cancer cell lines; up to 100 μM): did not inhibit

Structure (SMILES): Cn1c(=S)c2[nH]c(SCCCC(=O)c3ccc(F)cc3)nc2n(C)c1=O [TPSF, Butyrophenone, p-fluoro-4-(1,2,3,6,-tetrahydro-1,3-dimethyl-2-oxo-6-thionopurin-8-ylthio)]
- IC50 (GR; stably transfected T47D cells, 100 nM Dex, 24 h, read-out: IC50 for inhibition of GR gene expression (MMTV-Luc)): 10 µM
- effect on E2-dependent growth of MCF-7 cells (MCF-7 cells; 7.5 μM): completely blocked
- IC50 (MCF-7 cells; Homo sapiens, MCF7, 96 h, 1 pM E2, 4 days, MTS, read-out: IC50 for inhibition of E2-dependent growth of MCF-7 cells): 2 µM
- effect on growth of a panel of 60 cancer cell lines (60 cancer cell lines; 10 μM): does not inhibit growth
